For assay [1], the system named is Escherichia coli. Nature of the assay: Antibacterial activity against Escherichia coli assessed as growth inhibition at 1500 uM after 24 hr by agar well diffusion method. It counts as functional. The note with it: read-out: IZ. Background: In agar diffusion tests the substance spreads into inoculated agar from a disc or well.
Assay [2] relates to Staphylococcus aureus. Nature of the assay: Antibacterial activity against Staphylococcus aureus assessed as growth inhibition at 1500 uM after 24 hr by agar well diffusion method. It counts as functional. The note with it: read-out: IZ.

This is an account of results in ChEMBL document CHEMBL3046086, “In-silico design, synthesis and evaluation of novel DNA-gyrase B inhibitors” (2013).

`Cc1cc(O)nc2cc(N)ccc12`: the zone of inhibition at 1500 µM in assay [1] was found to be 4 mm; in assay [2], 5.5 mm.
For `Cc1cc(=O)[nH]c2cc(Nc3cccc(C(=O)O)c3)ccc12` the same measures were 7 mm and 7 mm.
Consider `O=C(O)c1cn(C2CC2)c2cc(N3CCNCC3)c(F)cc2c1=O` [CIPROFLOXACIN], for which the zone of inhibition at 1500 µM in assay [2] was 15 mm.
In the case of `Cc1cc(=O)[nH]c2cc(Nc3nccnc3C(=O)O)ccc12`, the zone of inhibition at 1500 µM in assay [1] was 8 mm; in assay [2] it was 7.5 mm.
With `Cc1cc(=O)[nH]c2cc(Nc3ccncc3C(=O)O)ccc12`, the zone of inhibition at 1500 µM amounted to 7 mm in assay [1] and 9 mm in assay [2].
On to `Cc1cc(=O)[nH]c2cc(Nc3cnc(C(=O)O)cn3)ccc12`, for which the figures for the zone of inhibition at 1500 µM in assay [1] and in assay [2] were 8.5 mm and 9 mm, respectively.
For `Cc1cc(=O)[nH]c2cc(Nc3ccccc3C(=O)O)ccc12`, the zone of inhibition at 1500 µM in assay [1] turned out to be 7 mm; in assay [2] it was 8 mm.
For the compound `Cc1cc(=O)[nH]c2cc(Nc3ccc(C(=O)O)cn3)ccc12`, in assay [2], the zone of inhibition at 1500 µM came to 3 mm.
Turning to `Cc1cc(=O)[nH]c2cc(Nc3ccc(C(=O)O)cc3)ccc12`, the values for the zone of inhibition at 1500 µM in assay [1] and in assay [2] were 12.8 mm and 13.5 mm, respectively.
For `Cc1cc(=O)[nH]c2cc(Nc3ncccc3C(=O)O)ccc12` the same measures were 4.2 mm and 5 mm.
